Key:
[1] = tested on: Golden Delicious variety of apples; experiment: Photosynthetic activity levels of the fruit bearing tree after the first application; assay type: in vivo
Protocol: The experiments were conducted on the Golden Delicious variety of apples in Germany and Italy. The first application of metamitron was applied to the fruit trees in May when the fruit was at fruiting stage BBCH69-BBCH72. The second application of metamitron was applied, if applicable, five days after the first application. […] Based on this and on the predicted meteorological data for the time of the second application, the second application should be applied at a high dose in order to effectively thin the fruit bearing tree. […] No over-thinning was observed.

[2] = tested on: Golden Delicious variety of apples; experiment: Fruit thinning field trial, first and optional second application of metamitron; assay type: in vivo; conditions: for Thinning Effect (%): vs untreated control
Protocol: A formulation of metamitron in the form of a soluble granule was diluted to the desired concentration with water. The following concentrations were prepared: • 1.1 Kg/ha metamitron (low dosage) • 1.65 Kg/ha metamitron (medium dosage) • 2.2 Kg/ha metamitron (high dosage) The experiments were conducted on the Golden Delicious variety of apples in Germany and Italy. The first application of metamitron was applied to the fruit trees in May when the fruit was at fruiting stage BBCH69-BBCH72. The second application of metamitron was applied, if applicable, five days after the first application. Local meteorological data was obtained from local weather stations. The meteorological data was inputted into the MaluSim Carbon Balance Model of Lakso (described at […].cornell.edu/apple_thin_help.html, the contents of which are hereby incorporated by reference) in order to obtain the level of carbohydrates available in the fruit tree. The thinning effect is calculated by comparing the treated fruit trees with the untreated control as follows: […]

[3] = Germany, 1st application 1.65 Kg/ha, 2nd application 0 Kg/ha
[4] = Germany, 1st application 1.65 Kg/ha, 2nd application 1.1 Kg/ha
[5] = Germany, 1st application 1.65 Kg/ha, 2nd application 2.2 Kg/ha
[6] = Germany, 1st application 2.2 Kg/ha, 2nd application 0 Kg/ha
[7] = Germany, 1st application 2.2 Kg/ha, 2nd application 1.1 Kg/ha
[8] = Germany, 1st application 2.2 Kg/ha, 2nd application 1.65 Kg/ha
[9] = Germany, 1st application 2.2 Kg/ha, 2nd application 2.2 Kg/ha
[10] = Italy, 1st application 1.65 Kg/ha, 2nd application 0 Kg/ha
[11] = Italy, 1st application 1.65 Kg/ha, 2nd application 1.1 Kg/ha
[12] = Italy, 1st application 1.65 Kg/ha, 2nd application 2.2 Kg/ha
[13] = Italy, 1st application 2.2 Kg/ha, 2nd application 0 Kg/ha
[14] = Italy, 1st application 2.2 Kg/ha, 2nd application 2.2 Kg/ha

In the case of `Cc1nnc(-c2ccccc2)c(=O)n1N` [metamitron], the “Photosynthetic Activity levels” value ([1]; Germany, after 1st application 1.65 Kg/ha) is reported as “Low”, the “Photosynthetic Activity levels” value ([1]; Germany, after 1st application 2.2 Kg/ha) is reported as “Low” and the “Photosynthetic Activity levels” value ([1]; Italy, after 1st application 1.65 Kg/ha) is reported as “Low”. For the same molecule, the “Photosynthetic Activity levels” value ([1]; Italy, after 1st application 2.2 Kg/ha) was “Low”, the “Fruit Load (fruits/tcsa)” value [2, 3] was 11.20 fruits/tcsa and the “Thinning Effect (%)” value [2, 3] was 33.2%. The “Fruit Load (fruits/tcsa)” value [2, 4] was 11.42 fruits/tcsa, the “Thinning Effect (%)” value [2, 4] was 31.8% and the “Fruit Load (fruits/tcsa)” value [2, 5] was 6.83 fruits/tcsa. The “Thinning Effect (%)” value [2, 5] was 59.3%, the “Fruit Load (fruits/tcsa)” value [2, 6] was 11.44 fruits/tcsa and the “Thinning Effect (%)” value [2, 6] was 31.8%. For the same molecule, the “Fruit Load (fruits/tcsa)” value [2, 7] was 11.40 fruits/tcsa, the “Thinning Effect (%)” value [2, 7] was 32.0% and the “Fruit Load (fruits/tcsa)” value [2, 8] was 11.98 fruits/tcsa. For the same molecule, the “Thinning Effect (%)” value [2, 8] was 28.5%, the “Fruit Load (fruits/tcsa)” value [2, 9] was 8.07 fruits/tcsa and the “Thinning Effect (%)” value [2, 9] was 51.8%. For the same molecule, the “Fruit Load (fruits/tcsa)” value [2, 10] was 12.33 fruits/tcsa, the “Thinning Effect (%)” value [2, 10] was 31.27% and the “Fruit Load (fruits/tcsa)” value [2, 11] was 12.30 fruits/tcsa. The “Thinning Effect (%)” value [2, 11] was 31.39%, the “Fruit Load (fruits/tcsa)” value [2, 12] was 9.58 fruits/tcsa and the “Thinning Effect (%)” value [2, 12] was 46.57%. For the same molecule, the “Fruit Load (fruits/tcsa)” value [2, 13] was 12.67 fruits/tcsa, the “Thinning Effect (%)” value [2, 13] was 29.38% and the “Fruit Load (fruits/tcsa)” value [2, 14] was 9.37 fruits/tcsa. For the same molecule, the “Thinning Effect (%)” value [2, 14] was 47.75%.

Reference: patent publication US20190313644A1, “METHOD FOR FRUIT THINNING” (Adama Agan Ltd., priority 2015, published 2019)
